The NIST ThermoML archive (doi:10.1016/j.jct.2010.06.012)
Several values for one entry are separate records, joined by “and”; a condition that tells them apart may be missing. Equal values may be shown once.

Conditions: Crystal, Calculated from knudsen effusion weight loss

Fc1ccc(-n2cccc2)cc1 [1-(4-fluorophenyl)pyrrole]
Conditions	vapor or sublimation pressure
271.14 K	0.000157 kPa and 0.000149 kPa and 0.000152 kPa
273.16 K	0.0002 kPa and 0.000197 kPa
275.2 K	0.000237 kPa and 0.000236 kPa
277.18 K	0.000303 kPa and 0.000288 kPa and 0.000313 kPa
279.18 K	0.000396 kPa and 0.000393 kPa and 0.000391 kPa
281.18 K	0.000509 kPa and 0.000505 kPa and 0.000497 kPa
283.12 K	0.000688 kPa and 0.000694 kPa and 0.00068 kPa
285.13 K	0.000863 kPa and 0.000854 kPa and 0.000832 kPa
287.17 K	0.001072 kPa and 0.001068 kPa and 0.001064 kPa

Clc1ccc(-n2cccc2)cc1 [1-(4-chlorophenyl)-1H-pyrrole]
Conditions	vapor or sublimation pressure
295.22 K	0.000183 kPa and 0.000176 kPa and 0.000175 kPa
297.17 K	0.000227 kPa and 0.00022 kPa and 0.000219 kPa
299.22 K	0.000289 kPa and 0.000279 kPa and 0.000275 kPa
301.12 K	0.000363 kPa and 0.000364 kPa and 0.000378 kPa
303.17 K	0.000467 kPa and 0.000463 kPa and 0.000451 kPa
305.21 K	0.000595 kPa and 0.000571 kPa and 0.000558 kPa
307.1 K	0.000744 kPa and 0.000715 kPa and 0.000706 kPa
309.12 K	0.000904 kPa and 0.000892 kPa and 0.000871 kPa
311.22 K	0.001132 kPa and 0.001115 kPa and 0.001084 kPa

Ic1ccc(-n2cccc2)cc1 [1-(4-iodophenyl)pyrrole]
Conditions	vapor or sublimation pressure
319.11 K	0.000107 kPa and 0.000112 kPa and 0.000109 kPa
321.19 K	0.000142 kPa and 0.00014 kPa and 0.000137 kPa
323.18 K	0.000174 kPa and 0.000169 kPa
325.12 K	0.000218 kPa and 0.000216 kPa and 0.00021 kPa
327.19 K	0.000274 kPa and 0.00027 kPa and 0.000265 kPa
329.18 K	0.000336 kPa and 0.000331 kPa and 0.000329 kPa
331.11 K	0.000402 kPa and 0.000421 kPa and 0.000416 kPa
333.17 K	0.00052 kPa and 0.000522 kPa and 0.000508 kPa
335.17 K	0.000639 kPa and 0.000628 kPa and 0.000624 kPa
337.12 K	0.000778 kPa and 0.000814 kPa and 0.000806 kPa
339.19 K	0.001022 kPa and 0.001014 kPa and 0.000977 kPa
341.17 K	0.001237 kPa and 0.001212 kPa and 0.001211 kPa
